pIC50: −log10 of the molar value.
Experiments:
[1] = tested on: PANC-1; assay: cells; settings: Homo sapiens, PANC-1, 48 h
Description: Antiproliferative activity against human PANC-1 cells assessed as inhibition of cell growth incubated for 48 hrs by propidium iodide staining based fluorometer assay

[2] = tested on: HT-29; assay: cells; settings: Homo sapiens, HT-29, 48 h
Description: Antiproliferative activity against human HT-29 cells assessed as inhibition of cell growth incubated for 48 hrs by propidium iodide staining based fluorometer assay

[3] = Cytotoxicity against human MCF-10A cells assessed as cell viability incubated for 96 hrs by MTT assay; type: toxicity, cell-based; design: concentration or dose not given beside the values; settings: read-out: Activity
[4] = tested on: MCF7; assay: Antiproliferative activity against human MCF7 cells assessed as inhibition of cell growth incubated for 48 hrs by propidium iodide staining based fluorometer assay; type: functional; settings: MCF7, 48 h
[5] = tested on: A549; assay: Antiproliferative activity against human A549 cells assessed as inhibition of cell growth incubated for 48 hrs by propidium iodide staining based fluorometer assay; type: functional; settings: A549, 48 h
[6] = tested on: MIA PaCa-2; assay: Antiproliferative activity against human MIA PaCa-2 cells assessed as inhibition of cell growth incubated for 48 hrs by propidium iodide staining based fluorometer assay; type: functional; settings: MIA PaCa-2, 48 h
[7] = tested on: NCI-H460; assay: cells; settings: Homo sapiens, NCI-H460, 48 h
Description: Antiproliferative activity against human NCI-H460 cells assessed as inhibition of cell growth incubated for 48 hrs by propidium iodide staining based fluorometer assay

[8] = tested on: PC-3; assay: cells; settings: Homo sapiens, PC-3, 48 h
Description: Antiproliferative activity against human PC-3 cells assessed as inhibition of cell growth incubated for 48 hrs by propidium iodide staining based fluorometer assay

| SMILES | pIC50 [1] | pIC50 [2] | viability at 96 h [3] | pIC50 [4] | pIC50 [5] | pIC50 [6] | pIC50 [7] | pIC50 [8] |
| --- | --- | --- | --- | --- | --- | --- | --- | --- |
| COc1ccc(/C=C2\CCc3ccc(Br)cc3C2=O)c(Cl)c1OC | 4.97 | 4.98 | 92% | 4.95 | 4.99 | 4.97 | 4.95 | 4.98 |
| COc1cccc(/C=C2\CC(C)C/C(=C\c3cccc(OC)c3Cl)C2=O)c1Cl (configuration not stated) | 5.48 | 5.47 | 93% | 5.55 | 5.51 | 5.54 | 5.38 | 5.41 |
| COc1cc(/C=C2\CCc3ccc(Cl)cc3C2=O)c(Br)c(OC)c1OC | 4.99 | 5.00 | 90% | 4.89 | 4.97 | 4.98 | 4.97 | 4.99 |
| COc1cc(/C=C2\CC(C(C)C)C/C(=C\c3cc(OC)c(OC)c(OC)c3Br)C2=O)c(Br)c(OC)c1OC (configuration not stated) | 5.14 | 5.17 | 89% | 5.09 | 5.12 | 5.12 | 5.13 | 5.14 |
| COc1cccc(/C=C2\CN(C)C/C(=C\c3cccc(OC)c3Cl)C2=O)c1Cl | 5.38 | 5.36 | 91% | 5.36 | 5.40 | 5.34 | 5.40 | 5.31 |
| CCN(CC)CCO/N=C1\C(=C\c2cc(OC)c(OC)c(OC)c2Br)CCc2ccc([N+](=O)[O-])cc21 | 5.38 | 5.35 | 97% | 5.31 | 5.37 | 5.40 | 5.34 | 5.36 |
| COc1cc(/C=C2\CCc3ccc([N+](=O)[O-])cc3C2=O)c(Br)c(OC)c1OC | 5.92 | 5.85 | 88% | 5.85 | 5.89 | 5.82 | 5.89 | 5.85 |
| COc1cc2c(cc1OC)C(=O)/C(=C/c1ccc(OC)c(OC)c1Cl)CC2 | 5.27 | 5.28 | 97% | 5.27 | 5.27 | 5.30 | 5.24 | 5.28 |
| COc1ccc(/C=C2\CN(C)C/C(=C\c3ccc(OC)c(OC)c3Cl)C2=O)c(Cl)c1OC | 5.47 | 5.42 | 90% | 5.48 | 5.41 | 5.49 | 5.46 | 5.48 |
| COc1cccc(/C=C2\CCc3ccccc3C2=O)c1Cl | 4.56 | 4.55 | 92% | 4.57 | 4.60 | 4.55 | 4.60 | 4.55 |
| COc1cccc(/C=C2\CCc3c(OC)cccc3C2=O)c1Cl | 5.07 | 5.08 | 93% | 5.05 | 5.19 | 5.06 | 5.05 | 5.08 |
| COc1ccc(/C=C2\CNC/C(=C\c3ccc(OC)c(OC)c3Cl)C2=O)c(Cl)c1OC | 5.19 | 5.18 | 92% | 5.19 | 5.12 | 5.21 | 5.14 | 5.15 |
| COc1cccc(/C=C2\CNC/C(=C\c3cccc(OC)c3Cl)C2=O)c1Cl | 5.12 | 5.13 | 94% | 5.08 | 5.14 | 5.11 | 5.14 | 5.12 |
| COc1cccc(/C=C2\CCc3ccc([N+](=O)[O-])cc3C2=O)c1Cl | 5.46 | 5.46 | 95% | 5.48 | 5.44 | 5.47 | 5.51 | 5.51 |
| COc1ccc(/C=C2\CN(Cc3ccccc3)C/C(=C\c3ccc(OC)c(OC)c3Cl)C2=O)c(Cl)c1OC | 4.81 | 4.99 | 89% | 4.81 | 4.79 | 4.81 | 4.86 | 4.80 |
| COc1cc(/C=C2\CCC/C(=C\c3cc(OC)c(OC)c(OC)c3Br)C2=O)c(Br)c(OC)c1OC | 5.62 | 5.70 | 89% | 5.51 | 5.59 | 5.59 | 5.59 | 5.54 |
| COc1cccc(/C=C2\CC(C(C)C)C/C(=C\c3cccc(OC)c3Cl)C2=O)c1Cl (configuration not stated) | 4.84 | 4.92 | 93% | 4.82 | 4.87 | 4.78 | 4.86 | 4.85 |

| SMILES | pIC50 [1] | pIC50 [2] | viability at 96 h [3] | pIC50 [4] | pIC50 [5] | pIC50 [6] | pIC50 [7] | pIC50 [8] |
| --- | --- | --- | --- | --- | --- | --- | --- | --- |
| COc1cc(/C=C2\CCc3ccc(Br)cc3C2=O)c(Br)c(OC)c1OC | 5.00 | 5.04 | 92% | 4.96 | 5.04 | 5.05 | 4.96 | 5.03 |
| COc1ccc(/C=C2\CCc3ccccc3C2=O)c(Cl)c1OC | 4.61 | 4.58 | 96% | 4.69 | 4.63 | 4.63 | 4.64 | 4.63 |
| COc1cccc(/C=C2\CCc3c(OC)ccc(OC)c3C2=O)c1Cl | 5.13 | 5.15 | 98% | 5.14 | 5.06 | 5.17 | 5.10 | 5.14 |
| COc1cc(/C=C2\CCC/C(=C\c3cc(OC)c(OC)c(OC)c3Br)C2=NO)c(Br)c(OC)c1OC | 5.66 | 5.68 | 95% | 5.54 | 5.59 | 5.59 | 5.60 | 5.60 |
| COc1cccc(/C=C2\CCc3ccc(Cl)cc3C2=O)c1Cl | 4.91 | 4.90 | 94% | 4.85 | 4.88 | 4.89 | 4.88 | 4.86 |
| CCN(CC)CCO/N=C1\C(=C\c2ccc(OC)c(OC)c2Cl)CCc2ccc([N+](=O)[O-])cc21 | 5.16 | 5.15 | 94% | 5.18 | 5.15 | 5.18 | 5.14 | 5.19 |
| COc1ccc(OC)c2c1CC/C(=C\c1ccc(OC)c(OC)c1Cl)C2=O | 5.37 | 5.40 | 90% | 5.39 | 5.37 | 5.41 | 5.42 | 5.35 |
| COc1cccc2c1CC/C(=C\c1cc(OC)c(OC)c(OC)c1Br)C2=O | 5.38 | 5.41 | 94% | 5.24 | 5.35 | 5.34 | 5.33 | 5.41 |
| COc1cccc(/C=C2\CN(Cc3ccccc3)C/C(=C\c3cccc(OC)c3Cl)C2=O)c1Cl | 4.76 | 4.80 | 89% | 4.75 | 4.81 | 4.77 | 4.85 | 4.73 |
| COc1cccc(/C=C2\CC(C)c3ccccc3C2=O)c1Cl (configuration not stated) | 5.08 | 5.08 | 98% | 5.06 | 5.06 | 5.01 | 5.02 | 5.00 |
| COc1cc(/C=C2\CCc3c(O)cccc3C2=O)c(Br)c(OC)c1OC | 5.72 | 5.72 | 93% | 5.74 | 5.80 | 5.72 | 5.72 | 5.66 |
| COc1ccc(/C=C2\CC(C(C)C)C/C(=C\c3ccc(OC)c(OC)c3Cl)C2=O)c(Cl)c1OC (configuration not stated) | 4.91 | 4.88 | 87% | 4.92 | 4.89 | 4.93 | 4.82 | 4.90 |
| COc1ccc2c(c1)CC/C(=C\c1ccc(OC)c(OC)c1Cl)C2=O | 5.68 | 5.57 | 89% | 5.59 | 5.54 | 5.64 | 5.59 | 5.70 |
| COc1ccc(OC)c2c1CC/C(=C\c1cc(OC)c(OC)c(OC)c1Br)C2=O | 5.60 | 5.72 | 91% | 5.62 | 5.59 | 5.66 | 5.68 | 5.66 |
| COc1cc(/C=C2\CC(C)c3ccccc3C2=O)c(Br)c(OC)c1OC (configuration not stated) | 5.62 | 5.54 | 92% | 5.68 | 5.59 | 5.64 | 5.66 | 5.62 |
| COc1cc(/C=C2\CN(C)C/C(=C\c3cc(OC)c(OC)c(OC)c3Br)C2=O)c(Br)c(OC)c1OC | 5.74 | 5.96 | 92% | 5.72 | 5.89 | 5.72 | 5.74 | 5.80 |
| COc1ccc2c(c1)CC/C(=C\c1cccc(OC)c1Cl)C2=O | 5.35 | 5.36 | 95% | 5.29 | 5.34 | 5.40 | 5.33 | 5.33 |
